Results as given in article PMC11325787, “A fluorescence polarization assay for high-throughput screening of inhibitors against HIV-1 Nef-mediated MHC-I downregulation” (The Journal of Biological Chemistry, 2024).
Peptide text beside a SMILES is read from it. * marks the point of attachment. X1 = CN(C)c1ccc2c(-c3ccc(C(=O)*)cc3C(=O)[O-])c3ccc(=[N+](C)C)cc-3oc2c1; 5TAMRA = CN(C)c1ccc2c(c1)Oc1cc(N(C)C)ccc1C21OC(=O)c2cc(C(=O)*)ccc21

Tests used:
MBP-Nef-μ1^CTD [1] = target: T1, MBP-Nef-μ1^CTD (UniProt P03406+P35585); type: binding, HIV-1 (Nef 59–206, NL4.3); conditions: 300 μM, result in words; for effect on FP signal: 30 μM MBP-Nef-μ1^CTD, 50 nM TMR-enhanced-MHC-ICD, room temperature; for effect on FP signal / noise in the assay: final dimethylsulfoxide 3%; for background of the assay: not shown
T1 construct: fusing HIV-1 Nef (59–206, NL4.3) to the C terminal domain of μ1 subunit of AP1; to the C terminal domain of μ1 subunit of AP1 via a flexible linker of 20 amino acids; 6xHis (C); made in house; host or cells: Escherichia coli
T1 sequence (P03406 59-206 limits assumed): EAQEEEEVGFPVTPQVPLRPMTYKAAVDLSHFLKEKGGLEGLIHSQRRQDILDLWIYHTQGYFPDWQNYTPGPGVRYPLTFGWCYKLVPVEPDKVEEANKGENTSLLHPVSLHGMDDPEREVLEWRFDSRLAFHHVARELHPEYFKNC
T1 sequence (P35585 168-421 limits assumed): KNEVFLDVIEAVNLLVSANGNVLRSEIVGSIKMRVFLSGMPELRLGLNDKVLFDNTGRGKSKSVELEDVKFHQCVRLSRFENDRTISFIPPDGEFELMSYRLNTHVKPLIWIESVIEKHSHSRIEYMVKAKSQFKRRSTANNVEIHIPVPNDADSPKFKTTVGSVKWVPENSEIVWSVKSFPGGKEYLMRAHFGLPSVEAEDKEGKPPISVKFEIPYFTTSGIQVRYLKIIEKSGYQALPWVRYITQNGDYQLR

MBP-Nef-μ1^CTD [2] = target: T1, MBP-Nef-μ1^CTD; assay: Fluorescence polarization binding assay of TMR-labelled MHC-ICD probes with the Nef-μ1^CTD fusion; parameters: species or system HIV-1 (Nef 59–206, NL4.3); conditions: 50 nM probe
Experimental: The assay volume was miniaturized and kept at 15 μl for compatibility with HTS.
Purified MBP-Nef-μ1^CTD was buffer exchanged into the assay buffer (50 mM Tris, 150 mM NaCl, 0.5 mM DTT, 0.01% Triton X-100, pH 8.0). A stock protein solution of 120 μM Nef-μ1^CTD was then prepared and was subsequently used to create different dilutions. Assays were carried out in Corning 384-well black microplates (3820). In each well, 50 nM TMR-labeled MHC-ICD peptide was mixed with MBP-Nef-μ1^CTD at varied concentrations in a total volume of 15 μl. The plate was incubated for 1∼2 h at room temperature with minimal exposure to light. FP was then measured using the EnVision plate reader (PerkinElmer) with excitation at 535 nm and emission at 595 nm. Experiments were done in triplicates. Data was fitted to nonlinear regression and plotted as a function of protein concentration in a logarithmic scale using OriginLab.
The adjusted data was then fitted to nonlinear regression for one-site binding using the following equation: Y = Bmax∗X/(KD + X) (Bmax: maximum specific binding in the same units as Y).

[3] = Stability of the probes on the bench; conditions: room temperature
MBP-Nef-μ1^CTD [4] = target: T1, MBP-Nef-μ1^CTD; assay: Competition of TMR-enhanced-MHC-ICD by unlabeled enhanced-MHC-ICD peptide (FP); type: binding, HIV-1 (Nef 59–206, NL4.3); conditions: room temperature, result in words
Source text: We next investigated whether our assay is sensitive to competitive inhibition. Here, an unlabeled, modified MHC-ICD peptide was used as the competitor. The sequence of this competitor peptide is different from the authentic sequence of MHC-ICD in the following ways. […] Second, to improve the solubility of the competitor peptide, we introduced three additional mutations in the MHC-ICD sequence: Q322E, G325S, and S326D. According to the previous structure, these mutations should not interfere with Nef-μ1^CTD binding but should increase the peptide’s hydrophilicity.
The Nef-μ1^CTD fusion was constructed by fusing HIV-1 Nef (59–206, NL4.3) to the C terminal domain of μ1 subunit of AP1 via a flexible linker of 20 amino acids. Gene encoding the above Nef-μ1^CTD fusion was cloned into a modified pMAT9 expression vector with a 6xHis tag introduced at the C-terminus of the fusion protein. Escherichia coli cells transformed with the plasmid were grown at 37 °C till A600 reached 0.8. Protein expression was then induced with 0.1 mM IPTG and continued at 16 °C overnight. Cells were then lysed using sonication. The protein of interest was purified sequentially through a Ni-NTA affinity column, a MBP affinity column, a HiTrap Q anion exchange column, and finally a Superdex 200 size exclusion column.
For competition using unlabeled enhanced-MHC-ICD peptide, a stock solution of 1.2 mM unlabeled enhanced-MHC-ICD peptide was first prepared. The stock solution was then serial-diluted (2-fold each) 10 times. […] The plate was incubated at room temperature and read at different time points. FP values were recorded. All experiments were done in triplicates.

[5] = Precipitation/solubility of competitor peptide observed during experiments; type: physicochemical; conditions: seen during experiments; stock solution 1.2 mM; result in words
TMR-MHC-ICD = assay: fluorescence polarisation

OC[C@H]1O[C@H](O[C@H]2[C@H](O)[C@@H](O)C(O)O[C@@H]2CO)[C@H](O)[C@@H](O)[C@@H]1O (mixture of isomers) [maltose]
effect on FP signal (MBP-Nef-μ1^CTD [1]): did not lead to any meaningful decrease of the FP signal | noise in the assay (MBP-Nef-μ1^CTD [1]): did not cause noise | background of the assay (MBP-Nef-μ1^CTD [1]): no fluctuation at all

C[C@H](NC(=O)[C@H](C)NC(=O)[C@H](CCC(N)=O)NC(=O)[C@H](CO)NC(=O)[C@H](Cc1ccc(O)cc1)NC(=O)[C@H](CO)NC(=O)c1ccc(-c2c3ccc(=[N+](C)C)cc-3oc3cc(N(C)C)ccc23)c(C(=O)[O-])c1)C(=O)NCC(=O)N[C@@H](CO)C(=O)N[C@@H](CC(=O)O)C(=O)N[C@@H](CO)C(=O)N[C@@H](C)C(=O)N[C@@H](CCC(N)=O)C(=O)O [TMR-MHC-ICD] (X1-SYSQAAGSDSAQ-OH; N-terminus and C-terminus assumed)
Kd (MBP-Nef-μ1^CTD [2]; FP, MBP-Nef-μ1^CTD varied, 15 μl, 384-well, 50 mM Tris, 150 mM NaCl, 0.5 mM DTT, 0.01% Triton X-100, pH 8.0, 1∼2 h, room temperature, ex 535 nm, em 595 nm, triplicates, TMR-mutant-MHC-ICD signal subtracted, one-site binding fit, read-out: KD (dissociation constant)): 44.1 µM | signal window (difference between probe and TMR-mutant-MHC-ICD curves) (MBP-Nef-μ1^CTD [2]; low Nef-μ1^CTD concentrations, result in words): very modest | stability of probe [3]: at least 20 h

CC(C)C[C@H](NC(=O)[C@H](CCC(N)=O)NC(=O)[C@H](CO)NC(=O)[C@H](Cc1ccc(O)cc1)NC(=O)[C@H](CO)NC(=O)c1ccc2c(c1)C(=O)OC21c2ccc(N(C)C)cc2Oc2cc(N(C)C)ccc21)C(=O)N[C@@H](C)C(=O)NCC(=O)N[C@@H](CO)C(=O)N[C@@H](CC(=O)O)C(=O)N[C@@H](CO)C(=O)N[C@@H](C)C(=O)N[C@@H](CCC(N)=O)C(=O)O [TMR-enhanced-MHC-ICD] (5TAMRA-SYSQLAGSDSAQ-OH)
stability of probe [3]: at least 20 h

O=C(N[C@H](CO)[C@H](O)c1ccc([N+](=O)[O-])cc1)C(Cl)Cl [chloramphenicol]
effect on FP signal (MBP-Nef-μ1^CTD [1]): did not lead to any meaningful decrease of the FP signal | noise in the assay (MBP-Nef-μ1^CTD [1]): did not cause noise | background of the assay (MBP-Nef-μ1^CTD [1]): no fluctuation at all

CC(C)C[C@H](NC(=O)[C@H](CCC(=O)O)NC(=O)[C@H](CO)NC(=O)[C@H](Cc1ccc(O)cc1)NC(=O)[C@@H](N)CO)C(=O)N[C@@H](C)C(=O)N[C@@H](CO)C(=O)N[C@@H](CC(=O)O)C(=O)N[C@@H](CC(=O)O)C(=O)N[C@@H](CO)C(=O)N[C@@H](C)C(=O)N[C@@H](CCC(N)=O)C(=O)O [unlabeled enhanced MHC-ICD peptide] (H-SYSELASDDSAQ-OH; N-terminus and C-terminus assumed)
effect on FP signal (displacement of TMR-enhanced-MHC-ICD probe) (MBP-Nef-μ1^CTD [4]; 30 μM MBP-Nef-μ1^CTD, 50 nM TMR-enhanced-MHC-ICD, varied competitor, triplicates): dose-dependent decrease of the FP signal | competition of the fluorescence-labeled probe after 1-h incubation (MBP-Nef-μ1^CTD [4]; 1-h incubation, three independent samples, one-way ANOVA p < 0.0001): successfully observed | competition signals after 4 h (MBP-Nef-μ1^CTD [4]; 4 h, three independent samples, longer incubation led to a gradual decrease of the FP signal (not shown)): remained stable | precipitation [5]: sometimes forms precipitates

MBP-Nef-μ1^CTD fusion protein (from UniProt P03406;P35585)
Kd (TMR-MHC-ICD): 44.1 µM

TMR-SDSQAAGSRSAQ [TMR-mutant-MHC-ICD]
FP signal at Nef-μ1^CTD concentration beyond 50 μM (MBP-Nef-μ1^CTD [2]; Nef-μ1^CTD >50 μM, noise believed to be light scattering of MBP-Nef-μ1^CTD, result in words): increased modestly | stability of probe [3]: at least 20 h
